Patent US20080199464A1, “Combination Therapy with Angiogenesis Inhibitors” (Genentech, Inc., priority 2007, published 2008)

Key:
[1] = test system: LS174T human colon carcinoma xenografts; assay: Growth inhibition of established LS174T human colon carcinoma xenografts; type: in vivo, athymic nude mice; settings: Day 18 of separate 25-day study; high sunitinib dose 50 mg/kg daily, alone or with B20-4.1
Procedure: (§1) Volume was calculated using the formula:
(§2) Tumor Volume(mm^3)=(W2×l)/2
(§3) Tumors were measured twice weekly using calipers. […] Treatment outcome was based on tumor growth inhibition (TGI).
(§4) Animals were monitored for regression responses.

[2] = test system: H1299 human non-small cell lung carcinoma (NSCLC) xenografts; assay: Growth inhibition of established H1299 human NSCLC xenografts; type: in vivo, athymic nude mice; settings: Day 19, longer term study, alone or with B20-4.1
Procedure: as §1, §2, §3, §4

[3] = test system: Caki-2 human renal cell carcinoma xenografts; assay: Growth inhibition of established Caki-2 renal cell carcinoma xenografts; type: in vivo, SCID mice
Procedure: as §1, §2, §3, §4

[4] = test system: 786-O renal cell carcinoma (RCC) xenografts; assay: Growth inhibition of established 786-O renal cell carcinoma xenografts; type: in vivo, athymic nude mice; settings: high sunitinib dose 50 mg/kg daily, alone or with B20-4.1
Procedure: as §1, §2, §3, §4

With `CCN(CC)CCNC(=O)c1c(C)[nH]c(/C=C2\C(=O)Nc3ccc(F)cc32)c1C` [sunitinib, N-[2-(diethylamino)ethyl]-5-[(Z)-(5-fluoro-1,2-dihydro-2-oxo-3H-indol-3-ylidine)methyl]-2,4-dimethyl-1H-pyrrole-3-carboxamde] the “TGI (tumor growth inhibition)” value [1] was 43%, the “TGI (tumor growth inhibition)” value ([2]; sunitinib 25 mg/kg daily) was 32% and the “TGI (tumor growth inhibition)” value ([2]; sunitinib 50 mg/kg daily) was 62%. For the same compound, the “TGI (tumor growth inhibition)” value ([3]; Day 29, high dose (50 mg/kg) sunitinib, alone or with B20-4.1) was 62%, the “Day 29 mean tumor volumes (MTVs)” value ([3]; low dose (25 mg/kg) sunitinib monotherapy) was 352 mm^3 and the “TGI (tumor growth inhibition)” value [4] was 80%.
